Test results: patent US11889833B2, “Protoporphyrinogen oxidase inhibitors” (Enko Chem, Inc., priority 2022, dated 2024)

Assays:
Format in all cases: in vivo
[1] = tested on: Echinochloa crus-galli (ECHCG); assay: Post-emergence herbicidal activity, ECHCG; settings: % visual injury compared to treatment control, 7 days after treatment
Description: (§1) Selected compounds of the invention were screened at 100 PPM against Amaranthus retroflexus (AMARE), Echinochloa crus-galli (ECHCG), Kochia scoparia (KCHSC), and Setaria italica (SETIT).
(§2) Accordingly, PPO susceptible weed seeds were sown in 5″×5″ pots by quadrant containing Miracle-Gro potting mix (Scotts Miracle-Gro Company, Marysville, OH, USA) and grown in a Conviron growth chamber with appropriate growth conditions (temperature of 26/22° C. with photoperiod 16/8 h light day/night and light intensity of 300 μmol m^−2s^−1 supplemented by LED lamps). Relative humidity in the growth chamber was maintained at around 65%. Plants were grown until 2-4 leaf stage and thinned to 5-8 plants per quadrant per species.
(§3) Compounds were formulated in 25% Acetone, 1% Crop oil concentrate (COC-Agridex), 0.1% Tween-20, and 2.5% Ammonium sulphate (AMS). Three replicate pots were treated with each compound. Treatment consisting of the above formulation excluding active compound was applied as a treatment control (TC). Plants were treated with the test compound solution in a laboratory spray chamber fitted with 8003 flat fan nozzles calibrated to deliver 187-200 L ha^−1 at 269 kPa. Plants were placed back in the growth chamber and evaluated for % visual injury compared to TC 7 days after treatment (DAT). The data presented in Table 3 indicate a percentage control, where 100% control indicates complete inhibition of growth.

Setaria italica (SETIT) = assay: Post-emergence herbicidal activity, SETIT; settings: % visual injury compared to treatment control, 7 days after treatment
Description: as §1, §2, §3

Kochia scoparia (KCHSC) = assay: Post-emergence herbicidal activity, KCHSC; settings: % visual injury compared to treatment control, 7 days after treatment
Description: as §1, §2, §3

[2] = tested on: Amaranthus retroflexus (AMARE); assay: Post-emergence herbicidal activity, AMARE; settings: % visual injury compared to treatment control, 7 days after treatment
Description: as §1, §2, §3

[3] = tested on: Amaranthus retroflexus (AMARE); assay: Pre-emergence herbicidal activity, AMARE; settings: % growth and germination inhibition compared to treatment control, 7 days after treatment
Description: Selected compounds of the invention were screened at 200 PPM against Amaranthus retroflexus (AMARE).
Accordingly, PPO susceptible weed seeds were planted in 5″×5″ pots by quadrant containing custom field soil mix (Sandy loam with 4.7% OM, pH 7.0) and covered with a fine layer of the same soil. Compounds were formulated in 25% Acetone, 1% Crop oil concentrate (COC-Agridex), 0.1% Tween-20, and 2.5% Ammonium sulphate (AMS). Three replicate pots were treated with each compound. Treatment consisting of the above formulation excluding active compound was applied as a treatment control (TC). Pots were treated with the test compound solution in a laboratory spray chamber fitted with 8003 flat fan nozzles calibrated to deliver 187-200 L ha-1 at 269 kPa. Compound was incorporated into the soil by simulating rainfall equivalent to 0.2 mm using the same track sprayer. Subsequently, pots were irrigated from the bottom until assessed for % growth and germination inhibition. Pots were placed back in the growth chamber and evaluated for % growth and germination inhibition compared to TC 7 days after treatment (DAT). Growth conditions are similar to the ones mentioned in POST emergence assay.
The data presented in Table 4 indicate a percentage control, where 100% control indicates complete inhibition of growth and germination.

SMILES | Post-emergence (100 ppm) ECHCG, percentage control [1] [%] | Post-emergence (100 ppm) SETIT, percentage control (Setaria italica (SETIT)) [%] | Post-emergence (100 ppm) KCHSC, percentage control (Kochia scoparia (KCHSC)) [%] | Post-emergence (100 ppm) AMARE, percentage control [2] [%] | AMARE pre-emergence (200 ppm), percentage control [3] [%]
COC(=O)CCNC(=O)[C@@H](C)Sc1cc(-c2c(F)c(F)c(F)c(F)c2F)c(F)cc1Cl (single isomer, unassigned) [Compound 6] | 10 | 8 | 12 | 100 | 
C[C@H](Sc1cc(-c2c(F)c(F)c(F)c(F)c2F)c(F)cc1Cl)C(=O)NCCC(=O)O [Compound 7, (S)-3-(2-((4-chloro-2′,3′,4′,5′,6,6′-hexafluoro-[1,1′-biphenyl]-3-yl)thio)propanamido)propanoic acid] | 37 | 28 | 20 | 100 | 
C[C@@H](Sc1cc(-c2c(F)c(F)c(F)c(F)c2F)c(F)cc1Cl)C(=O)NCCC(=O)O [Compound 8, (R)-3-(2-((4-chloro-2′,3′,4′,5′,6,6′-hexafluoro-[1,1′-biphenyl]-3-yl)thio)propanamido)propanoic acid] | 28 | 23 | 23 | 100 | 
CN(C)C(=O)NS(=O)(=O)c1cc(-c2c(F)c(F)c(F)c(F)c2F)c(F)cc1Cl [Compound 16, 4-chloro-N-(dimethylcarbamoyl)-2′,3′,4′,5′,6,6′-hexafluoro-[1,1′-biphenyl]-3-sulfonamide] | 95 | 43 | 8 | 33 | 100
CC(=O)NS(=O)(=O)c1cc(-c2c(F)c(F)c(F)c(F)c2F)c(F)cc1Cl [Compound 17, N-((4-chloro-2′,3′,4′,5′,6,6′-hexafluoro-[1,1′-biphenyl]-3-yl)sulfonyl)acetamide] | 100 | 100 | 13 | 88 | 100
CCC(=O)NS(=O)(=O)c1cc(-c2c(F)c(F)c(F)c(F)c2F)c(F)cc1Cl [Compound 18, N-((4-chloro-2′,3′,4′,5′,6,6′-hexafluoro-[1,1′-biphenyl]-3-yl)sulfonyl)propionamide] | 100 | 100 | 23 | 100 | 100
CCC(=O)NS(=O)(=O)c1cc(-c2c(F)cc(F)c(F)c2F)c(F)cc1Cl [Compound 26, N-((4-chloro-2′,3′,4′,6,6′-pentafluoro-[1,1′-biphenyl]-3-yl)sulfonyl)propionamide] | 100 | 100 | 15 | 100 | 100
